Test results taken from US20240374573A1, “IMIDAZOLE CONTAINING COMPOUNDS, DERIVATIVES THEREFORE, AND USES THEREOF” (AglaeaPharma Inc., priority 2023, published 2024).

How the values were obtained:
[1] = target: P-glycoprotein (P-gp, MDR1) (Homo sapiens, UniProt P08183); assay: in vitro; details: dog, MDCK-MDR1, pH 7.4
Experimental: MDR1-MDCK II cells (obtained from Piet Borst at the Netherlands Cancer Institute) were seeded onto Polycarbonate membranes (PC) in 96-well insert systems at 3.33×10^5 cells/mL until to 4-7 days for confluent cell monolayer formation.
Selected α2AR agonist from table 3s were diluted with the transport buffer (HBSS with 10.0 mM Hepes, pH7.4) from DMSO stock solution to a concentration of 2 μM (DMSO<1%) and applied to the apical or basolateral side of the cell monolayer. […] Permeation of the test compounds from A to B direction and/or B to A direction was determined in duplicate. Digoxin was tested at 10.0 μM from A to B direction and B to A direction in duplicate. The plate was incubated for 2.5 hours in CO2 incubator at 37.0±1.0° C., with 5.0% CO2 at saturated humidity without shaking. In addition, the efflux ratio of each compound was also determined. Test and reference compounds were quantified by LC/MS/MS analysis based on the peak area ratio of analyte/IS.
After transport assay, lucifer yellow rejection assay was applied to determine the cell monolayer integrity. Buffers were removed from both apical and basolateral chambers, followed by the addition of 75 μL of 100 μM lucifer yellow in transport buffer and 250 μL transport buffer in apical and basolateral chambers, respectively. The plate was incubated for 30 minutes at 37.0° C. with 5.0% CO2 and 95.0% relative humidity without shaking. After 30 minutes incubation, 20 μL of lucifer yellow samples were taken from the apical sides, followed by the addition of 60 μL of transport Buffer. And then 80 μL of lucifer yellow samples were taken from the basolateral sides. The relative fluorescence unit (RFU) of lucifer yellow was measured at 425/528 nm (excitation/emission) with an Envision plate reader.
The apparent permeability coefficient Papp (cm/s) was calculated using the equation: […]
wherein dCr/dt is the cumulative concentration of compound in the receiver chamber as a function of time (μM/s); Vr is the solution volume in the receiver chamber (0.075 mL on the apical side, 0.25 mL on the basolateral side); A is the surface area for the transport, i.e. 0.143 cm2 for the area of the monolayer; and C0 is the initial concentration in the donor chamber (μM).
The efflux ratio was calculated using the equation: […]

α2AAR = target: T1, α2AAR (Homo sapiens, UniProt P08913); assay: α2AAR binding assay ([3H]-RX 821002 radioligand); details: [3H]-RX 821002 0.5 nM, HEK293 membranes; read-out: α2A affinity (Ki)
T1 construct: host or cells: HEK293 (membranes)
T1 sequence (P08913 1-465): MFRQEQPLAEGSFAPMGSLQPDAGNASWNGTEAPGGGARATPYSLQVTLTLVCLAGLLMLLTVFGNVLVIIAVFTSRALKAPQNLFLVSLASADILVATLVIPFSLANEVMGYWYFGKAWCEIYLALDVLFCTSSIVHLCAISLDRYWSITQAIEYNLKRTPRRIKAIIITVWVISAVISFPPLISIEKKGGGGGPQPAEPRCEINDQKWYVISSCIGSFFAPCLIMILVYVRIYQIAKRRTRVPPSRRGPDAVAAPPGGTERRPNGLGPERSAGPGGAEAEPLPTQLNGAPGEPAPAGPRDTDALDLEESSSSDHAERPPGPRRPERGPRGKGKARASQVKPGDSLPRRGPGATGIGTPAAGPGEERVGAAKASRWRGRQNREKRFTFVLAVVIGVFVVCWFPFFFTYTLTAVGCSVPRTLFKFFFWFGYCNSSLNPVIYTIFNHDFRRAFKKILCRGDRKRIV

[2] = target: T2, α2AAR (α2A-adrenergic receptor) (Homo sapiens, UniProt P08913); assay: α2AAR FLIPR assay (agonist activity); type: cell-based; details: FLIPR, α2AAR cell line hosted in HEK293 cells; read-out: α2A agonist activity (EC50)
T2 construct: expressed in transfected cells; host or cells: HEK293
T2 sequence (P08913 1-465): T1 sequence (P08913 1-465)
How it was run: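 HEK293 cells expressing α2AAR loaded with Fluo-4 Direct plus probenecid for 50 min at 37° C and 10 min at room temperature, then treated with serially diluted compounds.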

Sequence of P-glycoprotein (P-gp, MDR1) (P08183 whole entry): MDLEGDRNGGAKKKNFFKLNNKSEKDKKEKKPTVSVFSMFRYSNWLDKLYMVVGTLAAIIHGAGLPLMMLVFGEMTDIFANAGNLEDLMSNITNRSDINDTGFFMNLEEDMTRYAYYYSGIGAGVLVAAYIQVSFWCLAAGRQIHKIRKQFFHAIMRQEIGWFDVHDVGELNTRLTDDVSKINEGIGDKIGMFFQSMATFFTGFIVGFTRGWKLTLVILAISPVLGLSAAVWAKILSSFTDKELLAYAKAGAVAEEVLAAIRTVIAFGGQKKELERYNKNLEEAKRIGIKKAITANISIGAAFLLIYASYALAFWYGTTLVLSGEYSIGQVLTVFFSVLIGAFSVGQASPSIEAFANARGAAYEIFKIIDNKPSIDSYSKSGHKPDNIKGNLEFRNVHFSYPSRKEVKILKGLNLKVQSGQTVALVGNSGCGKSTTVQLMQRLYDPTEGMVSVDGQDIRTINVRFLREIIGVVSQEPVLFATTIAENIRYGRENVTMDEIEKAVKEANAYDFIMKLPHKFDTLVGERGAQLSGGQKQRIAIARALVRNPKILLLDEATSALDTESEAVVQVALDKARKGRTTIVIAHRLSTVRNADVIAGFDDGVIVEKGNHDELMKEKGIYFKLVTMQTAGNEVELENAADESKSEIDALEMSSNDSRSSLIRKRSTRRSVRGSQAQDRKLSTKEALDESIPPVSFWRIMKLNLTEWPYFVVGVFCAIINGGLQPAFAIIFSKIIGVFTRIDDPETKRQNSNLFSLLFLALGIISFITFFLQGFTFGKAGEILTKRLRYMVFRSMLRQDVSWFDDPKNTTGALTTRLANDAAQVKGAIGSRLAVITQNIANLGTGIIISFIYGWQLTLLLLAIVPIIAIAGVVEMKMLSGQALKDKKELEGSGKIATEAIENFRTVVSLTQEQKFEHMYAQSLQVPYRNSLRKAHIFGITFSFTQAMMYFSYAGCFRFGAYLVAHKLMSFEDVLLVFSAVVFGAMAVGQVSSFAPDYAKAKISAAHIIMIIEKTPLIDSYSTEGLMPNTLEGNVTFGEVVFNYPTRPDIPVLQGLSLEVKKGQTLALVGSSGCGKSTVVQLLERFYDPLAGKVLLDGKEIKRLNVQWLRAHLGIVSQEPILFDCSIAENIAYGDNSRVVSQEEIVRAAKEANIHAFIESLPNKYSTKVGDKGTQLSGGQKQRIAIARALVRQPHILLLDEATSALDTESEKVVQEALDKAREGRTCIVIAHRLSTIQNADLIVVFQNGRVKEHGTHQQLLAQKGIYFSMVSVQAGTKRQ

Row | Compound | efflux ratio at 2.5 h, 2 μM [1] | Ki (α2AAR) | EC50 [2]
1 | Cc1c(CF)cccc1C(c1cccc(NS(C)(=O)=O)c1)c1c[nH]cn1 (racemic) [compound 118] | 25.3 | 10 to 50 nM | 10 to 50 nM
2 | CONC(=O)c1cccc(C(c2c[nH]cn2)c2cccc(C)c2C)c1 (single isomer, unassigned) [1-B] | 51 | 50 to 250 nM | 10 to 50 nM
3 | Cc1cccc(C(c2cccc(C(N)=O)c2)c2c[nH]cn2)c1C (single isomer, unassigned) [5-B] | 33.2 | 10 to 50 nM | 10 to 50 nM
4 | Cc1cccc(C(c2c[nH]cn2)c2cccc(C(N)=O)c2F)c1C (single isomer, unassigned) [45-B] | 14 | < 10 nM | 10 to 50 nM
5 | Cc1cccc(C(c2cccc(C(=O)NC3CCOCC3)c2)c2c[nH]cn2)c1C (single isomer, unassigned) [121-B] | 30.9 | < 10 nM | < 10 nM
6 | Cc1cccc(C(c2c[nH]cn2)c2cccc(C(=O)NCC3CCOCC3)c2F)c1C (single isomer, unassigned) [124-B] | 10.3 | < 10 nM | 10 to 50 nM
7 | Cc1cccc(C(Cc2ccc(C(N)=O)c(F)c2)c2c[nH]cn2)c1C (single isomer, unassigned) [156-B] | 2.86 | < 10 nM | < 10 nM
8 | Brc1c(NC2=NCCN2)ccc2nccnc12 [Brimonidine, brimonidine, reference compound] | 0.83 |  | 
9 | C[C@H]1O[C@@H](O[C@H]2[C@@H](O)C[C@H](O[C@H]3[C@@H](O)C[C@H](O[C@H]4CC[C@@]5(C)[C@H](CC[C@@H]6[C@@H]5C[C@@H](O)[C@]5(C)[C@@H](C7=CC(=O)OC7)CC[C@]65O)C4)O[C@@H]3C)O[C@@H]2C)C[C@H](O)[C@@H]1O [Digoxin, reference compound] | 13.7 |  | 
10 | Cc1cccc(C(c2c[nH]cn2)c2cccc(OCCNS(C)(=O)=O)c2F)c1C (stereo not shown) [compound 55] | 26.4 | 10 to 50 nM | 10 to 50 nM
11 | Cc1cccc(C(c2c[nH]cn2)c2cccc(C(N)=O)n2)c1C (stereo not shown) [compound 56] | 11.5 | 10 to 50 nM | 10 to 50 nM
12 | Cc1cccc(C(c2cccc(NC(=O)OC3CCOC3)c2)c2c[nH]cn2)c1C (stereo not shown) [compound 64] | 24.3 | 10 to 50 nM | 10 to 50 nM
13 | CCS(=O)(=O)Nc1cccc(C(c2c[nH]cn2)c2cccc(C)c2C)c1 (stereo not shown) [compound 67] | 29 | 10 to 50 nM | 10 to 50 nM
14 | CONC(=O)Nc1cccc(C(c2c[nH]cn2)c2cccc(C)c2C)c1 (stereo not shown) [compound 72] | 32.9 | 10 to 50 nM | 10 to 50 nM
15 | Cc1cccc(C(c2cccc(NC(=O)CC3CCOC3)c2)c2c[nH]cn2)c1C (stereo not shown) [compound 73] | 96.1 | 10 to 50 nM | 10 to 50 nM
16 | Cc1cccc(C(c2cccc(NS(=O)(=O)CCC#N)c2)c2c[nH]cn2)c1C (stereo not shown) [compound 74] | 93.5 | 10 to 50 nM | 50 to 250 nM
17 | Cc1cccc(C(c2cccc(NC(=O)CC3CCOCC3)c2)c2c[nH]cn2)c1C (stereo not shown) [compound 80] | 112 | < 10 nM | 10 to 50 nM
18 | Cc1cccc(C(c2cccc(C(=O)NCC3CCOCC3)c2)c2c[nH]cn2)c1C (stereo not shown) [compound 98] | 82.6 |  | 
19 | Cc1cccc(C(Cc2ccc(C(=O)NCC(=O)O)cc2)c2c[nH]cn2)c1C (stereo not shown) [compound 229] |  | 50 to 250 nM | 10 to 50 nM
20 | Cc1cccc(C(Cc2ccc3c(c2)CCC(=O)N3)c2c[nH]cn2)c1C (stereo not shown) [compound 230] |  | < 10 nM | 10 to 50 nM
21 | CNc1cccc(CC(c2c[nH]cn2)c2cccc(C)c2C)c1 (stereo not shown) [compound 231] |  | 10 to 50 nM | 10 to 50 nM
22 | Cc1cccc(C(Cc2ccc(S(C)(=O)=O)cc2)c2c[nH]cn2)c1C (stereo not shown) [compound 232] |  | < 10 nM | < 10 nM
23 | Cc1cccc(C(Cc2ccc(C(=O)NC3CCOCC3)c(O)c2)c2c[nH]cn2)c1C (stereo not shown) [compound 233] |  | 10 to 50 nM | 10 to 50 nM
24 | Cc1cccc(C(Cc2ccc(NC(=O)C3CCO3)cc2)c2c[nH]cn2)c1C (stereo not shown) [compound 234] |  | < 10 nM | 10 to 50 nM
25 | Cc1cccc(C(Cc2ccc3c(c2)OCCN3)c2c[nH]cn2)c1C (stereo not shown) [compound 235] |  | < 10 nM | 10 to 50 nM
26 | Cc1cccc(C(Cc2ccc(C(=O)NCCC(=O)O)cc2)c2c[nH]cn2)c1C (stereo not shown) [compound 236] |  | 50 to 250 nM | 10 to 50 nM
27 | CNC(=O)Nc1ccc(CC(c2c[nH]cn2)c2cccc(C)c2C)cc1 (stereo not shown) [compound 237] |  | < 10 nM | 10 to 50 nM
28 | Cc1cccc(C(Cc2ccc(OCC(=O)O)cc2)c2c[nH]cn2)c1C (stereo not shown) [compound 239] |  | 50 to 250 nM | 10 to 50 nM
29 | Cc1cccc(C(Cc2ccc(-c3nnn(C)n3)cc2)c2c[nH]cn2)c1C (stereo not shown) [compound 241] |  | 10 to 50 nM | 10 to 50 nM

More lines, now with the values ahead:

Row | efflux ratio at 2.5 h, 2 μM [1] | Ki (α2AAR) | EC50 [2] | Compound
30 |  | 50 to 250 nM | 10 to 50 nM | Cc1cccc(C(Cc2ccc(NC(=O)C3CCOCC3)nc2)c2c[nH]cn2)c1C (stereo not shown) [compound 242]
31 |  | < 10 nM | < 10 nM | Cc1cccc(C(Cc2ccc(N3CCN(C)C3=O)cc2)c2c[nH]cn2)c1C (stereo not shown) [compound 243]
32 |  | 50 to 250 nM | 50 to 250 nM | Cc1ccccc1C(Cc1ccc(C(N)=O)cc1)c1c[nH]cn1 (stereo not shown) [compound 244]
33 |  | < 10 nM | < 10 nM | Cc1cccc(C(Cc2ccc(NC(=O)N(C)C3CCOC3)cc2)c2c[nH]cn2)c1C (stereo not shown) [compound 245]
34 |  | 10 to 50 nM | 10 to 50 nM | Cc1cccc(C(Cc2ccc3c(c2)NCCN3)c2c[nH]cn2)c1C (stereo not shown) [compound 246]
35 |  | < 10 nM | 10 to 50 nM | CC(=O)Nc1ccc(CC(c2c[nH]cn2)c2cccc(C)c2C)c(F)c1 (stereo not shown) [compound 247]
36 |  | 50 to 250 nM | 10 to 50 nM | CC(=O)Nc1ccc(CC(c2c[nH]cn2)c2cccc(C)c2C)cn1 (stereo not shown) [compound 248]
37 |  | 50 to 250 nM | 10 to 50 nM | Cc1cccc(C(Cc2ccc(C(C)(C)C(=O)O)cc2)c2c[nH]cn2)c1C (stereo not shown) [compound 251]
38 |  | < 10 nM | 50 to 250 nM | CONC(=O)c1cccc(CC(NC2=NCCO2)c2ccccc2OC)c1 (stereo not shown) [compound 503, 3-[2-(4,5-dihydro-1,3-oxazol-2-ylamino)-2-(2-methoxyphenyl)ethyl]-N-methoxybenzamide]
39 |  | < 10 nM | 50 to 250 nM | COc1ccccc1C(Cc1cccc(NS(C)(=O)=O)c1)N=C1NCCN1 (stereo not shown) [compound 505, N-{3-[2-(imidazolidin-2-ylideneamino)-2-(2-methoxyphenyl)ethyl]phenyl}methanesulfonamide]
40 |  | < 10 nM | 50 to 250 nM | CONC(=O)c1cccc(CC(NC2=NCCS2)c2cccc(Cl)c2)c1 (stereo not shown) [compound 506]
41 |  | < 10 nM | 50 to 250 nM | COc1ccccc1C(Cc1cccc(NS(C)(=O)=O)c1)NC1=NCCO1 (stereo not shown) [compound 509]
42 |  | < 10 nM | 50 to 250 nM | COc1ccccc1C(Cc1cccc(NS(=O)(=O)CC2CCOCC2)c1)NC1=NCCS1 (stereo not shown) [compound 515]
43 |  | 50 to 250 nM | 50 to 250 nM | CS(=O)(=O)Nc1cccc(CC(Oc2c(Cl)cccc2Cl)C2=NCCN2)c1 (stereo not shown) [compound 516]
44 |  | 10 to 50 nM | 50 to 250 nM | CNS(=O)(=O)c1ccc(CC(Oc2c(Cl)cccc2Cl)C2=NCCN2)cc1 (stereo not shown) [compound 519]
